From patent US8541442B2, “Indole derivatives as anticancer agents” (Janssen Pharmaceutica N.V., priority 2009, dated 2013)

How the values were obtained:
[1] = system: colorectal cancer cell line HCT116; test: Alamar Blue cell proliferation assay, HCT116; assay type: cell-based; details: for IC50: Homo sapiens, HCT-116, HCT116 cells, read-out: HCT116 cell proliferation inhibition pIC50 (converted)
Protocol: (§1) For experiments in 384 wells plates the cells were seeded at a density of 5×10^3 cells/ml in Falcon 384-well culture plates (Life Technologies, Merelbeke, Belgium), black with clear bottom, in 45 μl culture medium. Cells were allowed to adhere to plastic for 24 hr. The tested compound was pre-diluted (1/50 in culture medium) and 5 μl pre-diluted compound was added to the wells. Following 4-day incubation, 10 μl of the Alamar Blue solution was added to each well and the cells were further incubated for 5 hrs (A2780) at 37° C. The fluorescence intensity was measured for each well with a Fluorescence plate reader (Fluorskan, Labsystems, 540 nm excitation and 590 nm emission)
(§2) The antiproliferative activity was calculated as percentage of remaining viable cells in treated versus control (untreated cells) conditions. Within an experiment, the result for each experimental condition is the mean of 3 replicate wells. When appropriate, the experiments were repeated to establish full concentration-response curves. When appropriate, IC50-values (concentration of the drug, needed to reduce cell growth to 50% of the control) were computed using probit analysis for graded data (Finney, D. J., Probit Analyses, 2nd Ed. Chapter 10, Graded Responses, Cambridge University Press, Cambridge 1962). Herein the effects of test compounds are expressed as pIC50 (the negative log value of the IC50-value (M)) (see Table 5A).
(§3) Compounds were also tested according to the above protocol but using other cell lines: colorectal cancer cell line HCT116, non-small cell lung cancer cell line H1299, human prostate cancer cell line DU145.

[2] = system: A2780 ovarian cancer cells; test: Alamar Blue cell proliferation assay, A2780; assay type: cell-based, human; details: 4-day incubation; for IC50: Homo sapiens, A2780, 96 h, read-out: A2780 cell proliferation inhibition pIC50 (converted)
Protocol: The human A2780 ovarian cancer cells were a kind gift from Dr. T. C. Hamilton (Fox Chase Cancer Centre, Pennsylvania, U.S.A.). The cells were cultured in RPMI 1640 medium supplemented with 2 mM L-Glutamine, 50 μg/ml gentamicin and 10% fetal calf serum.
Potassium Phosphate Buffer 0.1 M (PPB) was made as follows: 2.72 gram KH2PO4 and 13.86 gram K2HPO4 were dissolved in 500 ml milli-Q H2O, the pH was adjusted to pH 7.4 and the volume was brought to 1 liter with milli-Q H2O; the buffer was filter sterilised and stored at room temperature. Resazurin stock solution (PPB-A) was prepared fresh by dissolving 45 mg resazurin in 15 ml PBS. 30 mM potassium ferricyanide (PPB-B) was prepared by dissolving 0.987 gram potassium ferricyanide in 100 ml PPB. 30 mM potassium ferrocyanide (PPB-C) was prepared by dissolving 1.266 gram potassium ferrocyanide in 100 ml PPB.
Mixture of PPB-A, PPB-B and PPB-C was prepared by mixing equal volumes of the respective solutions. Resazurin work solution (herein termed “Alamar Blue” solution) was prepared by diluting said mixture 20×(vol/vol) in PPB and filter sterilising; the Alamar Blue solution could be kept at 4° C. for a maximum of 2 weeks.
as §1, §2

[3] = system: non-small cell lung cancer cell line H1299; test: Alamar Blue cell proliferation assay, H1299; assay type: cell-based
Protocol: as §1, §2, §3

p53 in A2780 cells = test: p53 ELISA (preservation of p53 in A2780 cells); assay type: cell-based, human; details: 16 hours treatment; for minimal effective concentration: Homo sapiens, A2780, 16 h, read-out: p53-elisa LAD (lowest dose giving at least 140% of the value for p53 present in the control)
Protocol: The capacity of the present compounds to preserve p53 in A2780 cells was measured with the p53 enzyme linked immunosorbent assay. The p53 assay is a “sandwich” enzyme immunoassay employing two polyclonal antibodies. A polyclonal antibody, specific for the p53 protein, has been immobilized onto the surface of the plastic wells. Any p53 present in the sample to be assayed will bind to the capture antibody. The biotinylated detector polyclonal antibody also recognizes p53 protein, and will bind to any p53, which has been retained by the capture antibody. The detector antibody, in turn, is bond by horseradish peroxidase-conjugated streptavidin. The horseradish peroxidase catalyses the conversion of the chromogenic substrate o-phenylene diamine, the intensity of which is proportional to the amount of p53 protein bond to the plate. The colored reaction product is quantified using a spectrophotometer. Quantitation is achieved by the construction of a standard curve using known concentrations of purified recombinant HIS tagged p53 protein (see example C.1.).
A2780 cells (ATCC) were cultivated in RPMI 1640 supplemented with 10% fetal calf serum (FCS), 2 mM L-glutamine and gentamycin at 37° C. in a humidified incubator with 5% CO2.
A2780 cells were seeded at 20.000 cells per well in a 96 well plate, cultured for 24 hours and treated with compound for 16 hours at 37° C. in a humidified incubator. After incubation, the cells were washed once with phosphate-buffered saline and 30 μl, per well, low salt RIPA buffer (20 mM tris, pH7.0, 0.5 mM EDTA, 1% Nonidet P40, 0.5% DOC, 0.05% SDS, 1 mM PMSF, 1 μg/ml aprotinin and 0.5 μ/ml leupeptin) was added. Plates were placed on ice for 30 minutes to complete the lysis. p53 protein was detected in de lysates by using the sandwich ELISA, described below.
High binding polystyrene EIA/RIA 96 well plates (Costar 9018) were coated with the capture antibody pAb1801 (Abcam ab28-100) at a concentration of 1 μg/ml in coating buffer (0.1 M NaHCO3 pH8.2), 50 μl per well. The antibody was allowed to adhere overnight at 4° C. Coated plates were washed once with phosphate-buffered saline (PBS)/0.05% Tween 20 and 300 μl of blocking buffer (PBS, 1% bovine serum albumins (BSA)) was added, for an incubation period of 2 hours at room temperature. Dilutions of purified recombinant HIS tagged p53 protein, ranging from 3-200 ng/ml, were made in blocking buffer and used as standards.
Plates were washed twice with PBS/0.05% Tween 20 and blocking buffer or standards were added at 80 μl/well. To the standards, 20 μl of lysis buffer was added. The samples were added to the other wells at 20 μl lysate/well. After an overnight incubation at 4° C., plates were washed twice with PBS/0.05% Tween 20. Aliquots of 100 μl secondary polyclonal antibody p53(FL-393) (Tebubio, sc-6243) at a concentration of 1 μg/ml in blocking buffer were added to each well and allowed to adhere for 2 hours at room temperature. Plates were washed three times with PBS/0.05% Tween 20. Detection antibody anti-rabbit HRP (sc-2004, Tebubio) at 0.04 μg/ml in PBS/1% BSA was added and incubated for 1 hour at room temperature. Plates were washed three times with PBS/0.05% Tween 20 and 100 μl of substrate buffer was added (substrate buffer was prepared shortly before use by adding 1 tablet of 10 mg o-phenylene diamine (OPD) from Sigma and 125 μl 3% H2O2 to 25 ml OPD buffer: 35 mM citric acid, 66 mM Na2HPO4, pH5.6). After 5 to 10 minutes, colour reaction was stopped by adding 50 μl stop buffer (1 M H2SO4) per well. The absorbance at dual wavelengths of 490/655 nm was measured using a Biorad micro plate reader and the results were then analyzed.
For each experiment, controls (containing no drug) and a blank incubation (containing no cells or drugs) were run in parallel. The blank value was subtracted from all control and sample values. For each sample, the value of p53 (in absorbance units) was expressed as the percentage of the value for p53 present in the control. […]

[4] = system: human prostate cancer cell line DU145; test: Alamar Blue cell proliferation assay, DU145; assay type: cell-based; details: Homo sapiens, DU-145, DU145 cells; read-out: DU145 cell proliferation inhibition pIC50 (converted)
Protocol: as §1, §2, §3

Male NMRI mice = test: Ro-4-1284 antagonism in mice; assay type: in vivo; details: Ro-4-1284 antagonism test in mice
Protocol: The test is a modification of a procedure described by Colpaert et al. (1975).^3 Male NMRI mice (22±3 g) were housed in macrolon observation cages (L×W×H: 11×12×17 cm; n=3 per cage). At the start of the experiments immediately before test compound administration, the initial body temperature of the mice was measured with a precision of 0.1° C. by inserting the thermo-sensitive probe (1.0 mm diameter) of an electric thermometer (Comark) to a constant depth of 3 cm into the esophagus until a stable reading was obtained. The right eye pupil diameter was measured with a graduated microscope and expressed in 1/24 mm units. Fifteen min after test compound administration, the mice were challenged with Ro-4-1284 (10 mg/kg, s.c.). Ro-4-1284 is a reserpine-like vesicular monoamine transport (VMAT-2) inhibitor, which rapidly depletes secretory vesicles.^3,4 Fifteen, 30 and 60 min after challenge, the mice were scored for palpebral opening (0, 1, 2, 3, 4, 5) and locomotor activity (−1, 0, 1, 2, 3). At the 60-min interval, immediately after the scoring of overt behavior, the right eye pupil diameter and the esophageal temperature were measured again. Abnormal phenomena such as intensive sniffing, chewing, rearing, hyperemia, piloerection, salivation, tremors, convulsions and death were noted (the latter phenomena were also noted when occurring before Ro-4-1284 administration). Criteria for drug-induced effects: reversal of ptosis: palpebral opening score >1 at 15, 30 or 60 min (2.7, 0.5 and 0% false positive controls, respectively; n>350); induction of prostration: score −1 for locomotion at 15, 30 or 60 min (never observed in controls); reversal of hypomotility: score >0 for locomotion at 15, 30 and 60 min (2.2, 0.8 and 0% false positive controls, respectively); reversal of miosis: pupil diameter >5 units at 60 min (0.8% false positives); potentiation of hypothermia: temperature decrease (over the 1-h time interval)>9.0° C. (1.4% false positives); reversal of hypothermia: temperature decrease <3.0° C. (1.8% false positives).
According to the standard procedure, R0-4-1284 is injected 15 min following subcutaneous or oral administration and observations start 15 min later. Doses are initially given to 3 animals. When at least 2 out of the 3 animals show activity for at least one of the observations, the compound is considered active.

Q: `Cc1cc(Nc2ccnc3c2CCC3O)ccc1NCCc1c[nH]c2c(CCO)cccc12` (single isomer, unassigned) [Compound 13] was tested. Which “HCT116 cell proliferation inhibition pIC50” value ([1]; HCT116 cells) did it give?
A: The value was 5.61.

Q: What about the “A2780 cell proliferation inhibition pIC50” value [2] of the same compound?
A: The value was 6.90.

Q: And the “H1299 cell proliferation inhibition pIC50” value ([3]; H1299 cells)?
A: Its value is less than 5.

Q: And the “p53-elisa LAD (lowest dose giving at least 140% of the value for p53 present in the control)” value (p53 in A2780 cells)?
A: Its value is 1.00 µM.

Q: Which IC50 [1] does the source give for `COC1CCc2c(Nc3ccc(NCCc4c[nH]c5c(C(C)(C)O)cccc45)cc3)ccnc21` (centres unmarked) [Compound 8] here?
A: The IC50 was 87.1 nM.

Q: And the IC50 [2]?
A: The IC50 was 87.1 nM.

Q: And the minimal effective concentration (p53 in A2780 cells)?
A: The minimal effective concentration was 0.1 µM.

Q: Which IC50 [1] does the source give for `C=Cc1ccc2c(CCNc3ccc(Nc4ccnc5c4CCC5O)cc3C)c[nH]c2c1` (centres unmarked) [Compound 14] here?
A: The IC50 was greater than 10000 nM.

Q: And the IC50 [2]?
A: The IC50 was 372 nM.

Q: And the IC50 ([3]; Homo sapiens, NCI-H1299, H1299 cells, read-out: H1299 cell proliferation inhibition pIC50 (converted))?
A: The IC50 was 3980 nM.

Q: What about the IC50 [4] of the same compound?
A: The IC50 was 7240 nM.

Q: And the minimal effective concentration (p53 in A2780 cells)?
A: Its minimal effective concentration is 1 µM.

Q: With `OC1CCc2c(Nc3ccc(NCCc4c[nH]c5ccccc45)cc3)ccnc21` (centres unmarked) [drawing 152, reference compound] as the compound, how does the “drug induced neurological side effects” value (Male NMRI mice) read?
A: Its value is “yes”.

Q: Which “drug induced neurological side effects” value (Male NMRI mice) does the source give for `OC1CCc2c(Nc3ccc(NCCc4c[nH]c5ccccc45)cc3)ccnc21` (centres unmarked) [drawing 153, reference compound] here?
A: Its value is “yes”.

Q: For `Cc1cc(Nc2ccncc2)ccc1NCCc1c[nH]c2ccccc12` [reference compound], which “drug induced neurological side effects” value (Male NMRI mice) is on record?
A: The value was “yes”.

Q: `c1ccc2c(CCNc3ccc(Nc4ccncc4)cc3)c[nH]c2c1` [reference compound] was tested. Which “drug induced neurological side effects” value (Male NMRI mice) did it give?
A: Its value is “yes”.

Q: With `Cc1cccc2c(CCNc3ccc(Nc4ccncc4)cc3)c[nH]c12` [reference compound] as the compound, how does the “drug induced neurological side effects” value (Male NMRI mice) read?
A: Its value is “yes”.
